Measurements reported in US12594281B2, “Pharmaceutical dosage forms and methods of use” (EMALEX BIOSCIENCES, INC., priority 2024, dated 2026).
pKi: −log10 of the molar value. Several values for one entry are separate records, joined by “and”; a condition that tells them apart may be missing. Identical values can stand only once. Like-named read-outs stand apart in the source and are kept apart here. Each block holds one compound with its values, some of them ahead of it.

Columns and labels:
[1] = cited from earlier work
[2] = target: ^3H-23390 binding site (Homo sapiens, UniProt P21728); conditions: read-out: Ki ^3H-23390; cited from earlier work
[3] = target: ^3H-Spip binding site (Homo sapiens, UniProt P14416); conditions: read-out: Ki ^3H-Spip; cited from earlier work
[4] = Phase 1 absorption, metabolism and excretion study of [14C]-ecopipam, single oral capsule dose; type: in vivo, human
Excerpt: Healthy subjects of any ethnic origin, aged between 35 and 55 years, inclusive, with a body mass index between 18.0 and 30.0 kg/m^2, inclusive, were selected for the study.

[5] = BCS solubility of Ecopipam HCl in pH buffers and bio-relevant media; type: physicochemical; conditions: for solubility at 24 h: 37 °C, thermodynamic from solid; for Solubility / Purity at 24 hours in solubility test: 37° C.
Protocol: Solubility and final pH were the average of three parallel values. Purity was that of 24 hours. N/A means not performed.

[6] = minipig, in vivo
Excerpt: (§2) The minipigs were 4-5 months old with a weight range within 10-15 kg at dosing. 3 male animals were used.
(§3) The concentration-time data were normalized for differences in dose.

[7] = Clinical drug-drug interaction study with rifampicin (EBS-101-HV-106); type: in vivo, human; conditions: rifampicin co-administered with oral ecopipam
Excerpt: (§1) The results from these studies are summarized in Table 7 below along with clinical recommendations.

[8] = Clinical drug-drug interaction study with divalproate sodium, general UGT inhibitor (EBS-101-HV-102); type: in vivo, human; conditions: divalproate sodium co-administered with oral ecopipam
Excerpt: as §1

[9] = Clinical drug-drug interaction study with mefenamic acid, specific UGT1A9 inhibitor (EBS-101-HV-102); type: in vivo, human; conditions: mefenamic acid co-administered with oral ecopipam
Excerpt: as §1

[10] = Pharmacokinetics of sublingual vs oral tablet in minipigs
Excerpt: as §2, §3

[11] = Phase 2 exposure-response for efficacy in Tourette's Disorder; type: in vivo, human; conditions: logistic regression model
[12] = Thorough QT study with C-QT analysis (EBS-101-HV-105); type: in vivo, human; conditions: for 10 msec increase in ΔΔQTcF interval: primary model
Protocol: A randomized, double-blind, single dose, 4-way crossover thorough QT study was conducted with an open-label active control (EBS-101-HV-105, 2024).
The primary endpoint for this study was pre-specified to be based on C-QT analysis using the methods outlined in the white paper (Garnett C, 2018) (Garnett C B. P., 2018).

[13] = Exposure-response analyses for safety (sedation, QTc); parameters: species or system human; conditions: in vivo
Excerpt: Exposure-response analyses have been conducted for safety using sedation as an endpoint and cardiac safety (QTc).

[14] = single oral dose 200 mg, fasted
[15] = after single oral dose of [14C]-ecopipam HCl
[16] = minipig, dose-normalized, Zydis ODT 25 mg sublingual vs IR tablet 50 mg oral (ecopipam HCl)
[17] = single oral dose 200 mg [14C]-ecopipam HCl
[18] = single dose of ecopipam 537.6 mg

Sequence of ^3H-Spip binding site (P14416 whole entry): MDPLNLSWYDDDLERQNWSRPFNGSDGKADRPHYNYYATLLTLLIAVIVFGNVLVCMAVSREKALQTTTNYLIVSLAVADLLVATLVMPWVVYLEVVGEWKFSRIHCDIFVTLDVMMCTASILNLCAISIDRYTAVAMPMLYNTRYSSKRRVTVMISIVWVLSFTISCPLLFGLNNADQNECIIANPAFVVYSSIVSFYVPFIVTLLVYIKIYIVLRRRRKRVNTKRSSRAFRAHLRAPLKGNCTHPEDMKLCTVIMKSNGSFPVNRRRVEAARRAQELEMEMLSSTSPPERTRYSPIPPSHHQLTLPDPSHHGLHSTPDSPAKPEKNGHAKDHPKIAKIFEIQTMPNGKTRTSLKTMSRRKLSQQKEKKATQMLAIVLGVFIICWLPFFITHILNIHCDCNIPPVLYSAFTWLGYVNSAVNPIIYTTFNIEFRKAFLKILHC
Sequence of ^3H-23390 binding site (P21728 whole entry): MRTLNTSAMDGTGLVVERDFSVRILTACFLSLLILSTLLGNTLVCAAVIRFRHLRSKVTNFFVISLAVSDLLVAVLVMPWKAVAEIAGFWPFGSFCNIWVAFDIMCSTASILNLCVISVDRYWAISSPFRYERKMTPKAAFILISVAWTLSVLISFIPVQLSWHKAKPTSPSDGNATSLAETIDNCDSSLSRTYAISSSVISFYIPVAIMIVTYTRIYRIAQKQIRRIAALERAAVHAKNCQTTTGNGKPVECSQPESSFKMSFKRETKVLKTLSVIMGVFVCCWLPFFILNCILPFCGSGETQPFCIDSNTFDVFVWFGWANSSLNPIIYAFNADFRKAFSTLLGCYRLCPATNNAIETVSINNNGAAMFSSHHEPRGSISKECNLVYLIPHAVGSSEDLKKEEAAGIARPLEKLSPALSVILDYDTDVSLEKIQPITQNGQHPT

Structure (SMILES): CN1CCc2cc(Cl)c(O)cc2[C@@H]2c3ccccc3CC[C@H]21 [CH2/1/7b(S):7a(R)(+)/Cl/OH]
- CAR (MED) ([1]; po): >30 (po)

Structure (SMILES): COc1cc2c(cc1O)C1c3ccccc3CCCC1N(C)CC2 (stereo not drawn) [CH2/2/trans/CH3O/OH]
- pKi [2]: 6.53
- pKi [3]: < 4.00
- CAR (MED) ([1]; sc): 10 (sc)

Structure (SMILES): Cc1cc2c(cc1O)C1c3ccccc3CCC1N(C)CC2 (stereo not drawn) [CH2/1/trans/CH3/OH]
- pKi [2]: 6.92
- pKi [3]: 5.14

Structure (SMILES): CN1CCc2cc(Cl)c(O)cc2C2c3ccccc3CCC21 (stereo not drawn) [CH2/1/trans/Cl/OH]
- CAR (MED) ([1]; po): 30 (po);
- CAR (MED) ([1]; sc): 0.3 (sc)

Structure (SMILES): CN1CCc2cc(Cl)c(N)cc2C2c3ccccc3CCC21 (stereo not drawn) [CH2/1/trans/Cl/NH2]
- pKi [2]: 7.15
- pKi [3]: 5.38
- CAR (MED) ([1]; po): 3 (po)

Structure (SMILES): CN1CCc2cc(Cl)c(O)cc2C2c3ccccc3CC21 (stereo not drawn) [CH2/0/trans/Cl/OH]
- pKi [2]: 8.00
- pKi [3]: 5.59

Structure (SMILES): CN1CCc2cc(Cl)c(O)cc2[C@H]2c3ccccc3CC[C@@H]21.Cl [[^14C]-ecopipam HCl]
- Median time of the maximum observed concentration of total radioactivity in whole blood ([4]; single oral dose 200 mg): 2.00 hours postdose
- Arithmetic mean radioactivity recovered in feces [4, 14]: 8.27%
- Arithmetic mean radioactivity recovered in urine [4, 14]: 83.3%

Structure (SMILES): COc1cc2c(cc1O)CCN(C)C1CCCc3ccccc3C21 (stereo not drawn) [CH2/2/trans/HO/CH3O]
- pKi [2]: 5.11
- pKi [3]: < 4.00
- CAR (MED) ([1]; sc): 10 (sc)

Structure (SMILES): CN1CCc2ccc(O)cc2C2c3ccccc3CCC21 (stereo not drawn) [CH2/1/trans/H/OH]
- pKi [2]: 7.52
- pKi [3]: 5.46

Structure (SMILES): COc1cc2c(cc1O)C1c3ccccc3CCC1N(C)CC2 (stereo not drawn) [CH2/1/cis/CH3O/OH]
- pKi [2]: 5.19
- pKi [3]: < 4.00

Structure (SMILES): COc1cc2c(cc1O)C1c3ccccc3CCC1N(C)CC2 (stereo not drawn) [CH2/1/trans/CH3O/OH]
- pKi [2]: 7.64
- pKi [3]: 5.60
- CAR (MED) ([1]; po): 30 (po);
- CAR (MED) ([1]; sc): 0.3-1 (sc)

Structure (SMILES): CN1CCc2cc(Cl)c(O)cc2[C@H]2c3ccccc3CC[C@@H]21 [CH2/1/7b(R):7a(S)(−)/Cl/OH]
- CAR (MED) ([1]; po): 30 (po)

Structure (SMILES): CN1CCc2ccc(O)cc2C2c3ccccc3OCC21 (stereo not drawn) [O/1/trans/H/OH]
- pKi [2]: 6.92

Structure (SMILES): CN1CCc2cc(Cl)c(O)cc2[C@H]2c3ccccc3CC[C@@H]21.Cl [Ecopipam HCl]
- solubility at 24 h ([5]; pH 1.2, simulated gastric fluid, pH 1.2 HCl buffer, 50 mM, up to 24 hours, final pH 1.23): 1560 µg/mL
- solubility at 24 h ([5]; pH 1.61, fassgf or other biorelevant, FaSSGF, final pH 1.61): 2000 µg/mL
- solubility at 24 h ([5]; pH 3, aqueous buffer, pH 3.0 citrate buffer, 100 mM, up to 24 hours, final pH 2.96): 9400 µg/mL
- solubility at 24 h ([5]; pH 3, aqueous buffer, pH 3.0 phthalate buffer, 50 mM, up to 24 hours, final pH 3.05): 8 µg/mL
- solubility at 24 h ([5]; pH 4.5, aqueous buffer, pH 4.5 acetate buffer, 50 mM, up to 24 hours, final pH 4.50): 3300 µg/mL
- solubility at 24 h ([5]; pH 5.5, aqueous buffer, pH 5.5 acetate buffer, 50 mM, up to 24 hours, final pH 5.49): 230 µg/mL
- solubility at 24 h ([5]; pH 5.84, fessif, FeSSIF-V2, final pH 5.84): 660 µg/mL
- solubility at 24 h ([5]; pH 6.49, fassif, FaSSIF-V2, final pH 6.49): 50 µg/mL
- solubility at 24 h ([5]; pH 6.8, aqueous buffer, pH 6.8 phosphate buffer, 50 mM, up to 24 hours, final pH 6.85): 20 µg/mL
- Solubility ([5]; FaSSGF, final pH 1.61): 2020 µg/mL
- XRPD (crystalline form after solubility test) ([5]; FaSSIF-V2): Changed
- XRPD (crystalline form after solubility test) ([5]; FeSSIF-V2): Changed
- Time stable in bio-relevant media ([5]; bio-relevant media at 37° C., degradation occurred from 3 hours): up to 1 hour
- Purity at 24 hours in solubility test ([5]; pH 1.2 HCl buffer, 50 mM): 99.87%
- XRPD (crystalline form after solubility test) ([5]; pH 3.0 citrate buffer, 100 mM): did not exhibit a change in crystallinity
- Purity at 24 hours in solubility test ([5]; pH 3.0 citrate buffer, 100 mM): 99.87%
- Solubility ([5]; pH 3.0 citrate buffer, 100 mM, up to 24 hours, final pH 2.96): 9420 µg/mL
- XRPD (crystalline form after solubility test) ([5]; pH 3.0 phthalate buffer, 50 mM): Changed
- XRPD (crystalline form after solubility test) ([5]; pH 4.5 acetate buffer, 50 mM): Changed
- Purity at 24 hours in solubility test ([5]; pH 4.5 acetate buffer, 50 mM): 99.85%
- XRPD (crystalline form after solubility test) ([5]; pH 5.5 acetate buffer, 50 mM): Changed
- Purity at 24 hours in solubility test ([5]; pH 5.5 acetate buffer, 50 mM): 100.00%
- XRPD (crystalline form after solubility test) ([5]; pH 6.8 phosphate buffer, 50 mM): Changed
- Purity at 24 hours in solubility test ([5]; pH 6.8 phosphate buffer, 50 mM): 100.00%

Structure (SMILES): Oc1cc2c(cc1Cl)CCNC1CCc3ccccc3C21 (stereo in doubt) [EBS-101-40853]
- Geometric mean AUC ratio of plasma analyte to plasma total radioactivity ([4]; human, in vivo, po, 200 mg): 0.00178
- Percentage of dose excreted in urine as analyte (geometric mean) ([4]; in vivo, po): 0.0645%
- Share of radioactivity in plasma ([4]; in vivo, po): 0.26%
- Geometric mean apparent terminal elimination half-life (t½) of analyte ([4]; in vivo, po, 200 mg): 25.6 h
- Geometric mean renal clearance ([4]; in vivo, po, 200 mg): 1.53 L/h
- Reduction of first pass metabolite concentration vs oral dosage form for oral systemic administration [6]: 48-55%

Structure (SMILES): CN1CCc2cc(Cl)c(O[C@@H]3O[C@H](C(=O)O)[C@@H](O)[C@H](O)[C@H]3O)cc2C2c3ccccc3CCC21 (stereo partly drawn) [ecopipam glucuronide, ecopipam O-β-D-glucuronide]
- Share of radioactivity in plasma [4, 15]: 80%
- Share of radioactivity in the urine [4, 15]: 67%
- Lower Cmax [7]: 22%
- Lower Cmax [8]: 23%
- Lower Cmax [9]: 15%
- Ratio of SL/oral AUC [10, 16]: 0.15
- Ratio of SL/oral Cmax [10, 16]: 0.24
- Reduction of first pass metabolite concentration vs oral dosage form for oral systemic administration ([10]; sublingual / intraoral dosage form): 76-85% and 75-85%

- half-life ([4]; male, human, plasma, single oral dose 200 mg [14C]-ecopipam HCl, read-out: Geometric mean apparent terminal elimination half-life (t½) of analyte (converted)): 17.3 h
- CL renal ([4]; male, human, urine, single oral dose 200 mg [14C]-ecopipam HCl, read-out: Geometric mean renal clearance (converted)): 4.73 mL/min
- Share of the radiolabeled dose found as ecopipam in plasma ([4]; oral systemic administration): about 1.69%
- Median time of the maximum observed concentration of analyte in plasma [4, 17]: 2.00 hours postdose
- Percentage of dose excreted in urine as analyte (geometric mean) [4, 17]: < 1%
- Unchanged compound in feces, share of the total administered dose [4, 17]: 6%
- Lower Cmax and AUC∞ [7]: substantially (72-77%) lower Cmax
- Increase in AUC∞ [8]: 40853 glucuronide, a ~2.1x increase
Structure (SMILES): CN1CCc2cc(Cl)c(O)cc2[C@H]2c3ccccc3CC[C@@H]21 [ecopipam, (−)-trans-6,7,7a,8,9,13b-hexahydro-3-chloro-2-hydroxy-N-methyl-5H-benzo [d]-naphtho-[2,1-b]azepine]
- Increase in odds of being a responder at 12 weeks per 100 unit increase in combined steady-state AUC of ecopipam and EBS-101-40853 [11]: 6.8%
- 10 msec increase in ΔΔQTcF interval ([12]; single dose ecopipam 179.2 mg + a general UGT inhibitor): cannot be ruled out
- 10 msec increase in ΔΔQTcF interval ([12]; single dose ecopipam 179.2 mg): can be ruled out
- Effect on QTcF [12, 18]: increase
- Predicted increase in ΔΔQTcF interval [12, 18]: up to 20.4 msec
- Effect on HR, QRS, or PR intervals ([12]; single doses 179.2 mg and 537.6 mg): no effect
- Exposure-response relationship for QTc [13]: exposure-response relationship
- Relationship between plasma Cmax or AUCinf and choice reaction time or visual analogue scale for sedation [13]: no relationship
